Test system: algae (Chlamydomonas, Scenedesumus, Actinastrum, Ulothrix, Oscillatoria, Spirogyra, Pleurotaenium, Stichoccus and Chlorella)
Test: Hydroponic Culture Test No. 1: algae disks immersed in test nutrient solutions, visual examination of algae growth
Format: cell-based, algae collected from hydroponic culture of tomato plants
Design: key: +: Algae growth was clearly observed; −: Algae growth was not observed
Conditions: 7 days, 250° C., continuous light 2500 lux
Procedure: Algae which grew in hydroponic culture of tomato plants inside a greenhouse provided with a hydroponic culture system were collected. A control nutrient solution was prepared by dissolving in 1 liter of water 0.625 g, 0.417 g, 0.042 g and 0.029 g respectively of Otsuka House Nos. 1, 2, 3 and 5 (tradenames of products by Otsuka Chemical Co., Ltd.) Identified in the collected algae were the following nine kinds: Chlamydomonas, Scenedesumus, Actinastrum, Ulothrix, Oscillatoria, Spirogyra, Pleurotaenium, Stichoccus and Chlorella.
The algae thus collected were filtered by using a filtering net with opening diameter of 53 μm. After the filtrate was buried inside the aforementioned control nutrient solution containing agar by 0.8 weight %, disks were cut out therefrom by means of a cork borer. Test nutrient solutions which were individually prepared by adding indoleacetic acid, 3-indole propionic acid or 3-(3-indolyl) butyric acid shown by Formula 1 at different concentrations to the control nutrient solution, and after these disks were immersed individually in these test nutrient solutions for 7 days at […] under a continuous illumination of light at 2500 lux, the growth of algae was visually examined.

Row | SMILES | growth of algae (visual) (Concentration 0.1 mg/liter) | growth of algae (visual) (Concentration 0.5 mg/liter) | growth of algae (visual) (Concentration 1 mg/liter) | growth of algae (visual) (Concentration 5 mg/liter) | growth of algae (visual) (Concentration 10 mg/liter) | growth of algae (visual) (Concentration 25 mg/liter) | growth of algae (visual) (Concentration 50 mg/liter)
1 | O=C(O)CCc1c[nH]c2ccccc12 [IPA, 3-indole propionic acid] | + | + | + | + | + | + | +
2 | CC(CC(=O)O)c1c[nH]c2ccccc12 (stereo not drawn) [IBA, 3-(3-indolyl) butyric acid] | + | + | + | + | − | − | −
3 | O=C(O)Cc1c[nH]c2ccccc12 [IAA, indoleacetic acid] | + | + | + | + | + | + | +
